Columns and labels:
Assay type in all cases: in vivo
Myzus persicae [1] = experiment: Myzus persicae test, Example D (sprayed to runoff, ammonium salt boosting)
Method: (§1) Solvent: 7 parts by weight dimethylformamide
(§2) Emulsifier: 2 parts by weight alkylaryl polyglycol ether
(§3) An appropriate preparation of active ingredient is prepared by mixing 1 part by weight of active ingredient with the stated amounts of solvent and emulsifier and diluting the concentrate with water to the desired concentration. For the application with ammonium salts or phosphonium salts, these salts are added in a concentration of 1000 ppm to the spray liquor.
Paprika plants (Capsicum annum) heavily infested by the green peach aphid (Myzus persicae) are treated by being. sprayed to runoff with the preparation of active ingredient at the desired concentration. After the desired time the destruction in % is ascertained. 100% means that all of the animals have been killed; 0% means that no animals have been killed.

Aphis gossypii [2] = experiment: Aphis gossypii test, Example E (sprayed to runoff, ammonium salt boosting)
Method: as §1, §2
as §3, with “concentrate with emulsifier-containing water to” for “concentrate with water to”
(§4) Cotton plants (Gossypium hirsutum) heavily infested by the cotton aphid (Aphis gossypii) are sprayed to runoff with the preparation of active ingredient at the desired concentration.
(§5) After the desired time the destruction in % is ascertained. 100% means that all of the aphids have been killed; 0% means than no aphids were killed.

Myzus persicae [3] = experiment: Myzus persicae test, Example F (sprayed to runoff, ammonium salt plus penetrant)
Method: as §1, §2
An appropriate preparation of active ingredient is prepared by mixing 1 part by weight of active ingredient with the stated amounts of solvent and emulsifier and diluting the concentrate with water to the desired concentration. For the application with ammonium salts or phosphonium salts and penetrant (rapeseed oil methyl ester 500 EW), they are each added in a concentration of 1000 ppm to the spray liquor.
After the desired time the destruction in % is ascertained. 100% means that all of the animals have been killed; 0% means that no animals have been killed.

Aphis gossypii [4] = experiment: Aphis gossypii test, Example G (sprayed to runoff, ammonium salt plus penetrant)
Method: as §1, §2
An appropriate preparation of active ingredient is prepared by mixing 1 part by weight of active ingredient with the stated amounts of solvent and emulsifier and diluting the concentrate with emulsifier-containing water to the desired concentration. For the application with ammonium salts or phosphonium salts and penetrants (rapeseed oil methyl esters 500 EW), they are each added in a concentration of 1000 ppm a.i. to the spray liquor.
as §4, §5

[5] = 0.8 ppm active ingredient, +AS (1000 ppm)
[6] = 0.8 ppm active ingredient, no additive
[7] = 4 ppm active ingredient, +AS (1000 ppm)
[8] = 4 ppm active ingredient, no additive
[9] = 4 ppm active ingredient, +RME (1000 ppm)
[10] = 4 ppm active ingredient, +RME +AS (each 1000 ppm)
[11] = 20 ppm active ingredient, +AS (1000 ppm)
[12] = 20 ppm active ingredient, no additive
[13] = 100 ppm active ingredient, +AS (1000 ppm)
[14] = 100 ppm active ingredient, +RME (1000 ppm)
[15] = 100 ppm active ingredient, +RME +AS (each 1000 ppm)
[16] = 100 ppm active ingredient, no additive
[17] = 20 ppm active ingredient, +RME (1000 ppm)
[18] = 20 ppm active ingredient, +RME +AS (each 1000 ppm)

## COC1CCC2(CC1)OC(=O)C(c1c(C)cc(C)cc1C)=C2O (stereo not shown) [Example I-2-a-1]
Myzus persicae [1]; [5]
  Degree of destruction/% after 6 days: 65%
Myzus persicae [1]; [6]
  Degree of destruction/% after 6 days: 20%
Myzus persicae [1]; [7]
  Degree of destruction/% after 6 days: 98%
Myzus persicae [1]; [8]
  Degree of destruction/% after 6 days: 90%
Aphis gossypii [2]; [5]
  Degree of destruction/% after 6 days: 85%
Aphis gossypii [2]; [6]
  Degree of destruction/% after 6 days: 0%
Aphis gossypii [2]; [7]
  Degree of destruction/% after 6 days: 95%
Aphis gossypii [2]; [8]
  Degree of destruction/% after 6 days: 80%
Myzus persicae [3]; [5]
  Degree of destruction/% after 6 days: 65%
Myzus persicae [3]; 0.8 ppm active ingredient, +RME (1000 ppm)
  Degree of destruction/% after 6 days: 95%
Myzus persicae [3]; 0.8 ppm active ingredient, +RME +AS (each 1000 ppm)
  Degree of destruction/% after 6 days: 100%
Myzus persicae [3]; [6]
  Degree of destruction/% after 6 days: 20%

## Cc1ccccc1-c1c(O)c(C)c(-c2ccccn2)oc1=O [Example I-4-a-2]
Aphis gossypii [2]; [7]
  Degree of destruction/% after 6 days: 60%
Aphis gossypii [2]; [8]
  Degree of destruction/% after 6 days: 50%
Aphis gossypii [4]; [7]
  Degree of destruction/% after 6 days: 60%
Aphis gossypii [4]; [9]
  Degree of destruction/% after 6 days: 0%
Aphis gossypii [4]; [10]
  Degree of destruction/% after 6 days: 65%
Aphis gossypii [4]; [8]
  Degree of destruction/% after 6 days: 5%

## COc1cc(C)cc(C)c1-c1c(O)sc(-c2ccc(F)cc2)nc1=O [Example I-5-a-1]
Myzus persicae [1]; [11]
  Degree of destruction/% after 6 days: 55%
Myzus persicae [1]; [12]
  Degree of destruction/% after 6 days: 0%
Myzus persicae [3]; [7]
  Degree of destruction/% after 6 days: 5%
Myzus persicae [3]; [9]
  Degree of destruction/% after 6 days: 55%
Myzus persicae [3]; [10]
  Degree of destruction/% after 6 days: 95%
Myzus persicae [3]; [8]
  Degree of destruction/% after 6 days: 0%

## Cc1cc(C)c(C2=C(O)C3(CCCCC3)CC2=O)c(C)c1 [Example I-6-a-1]
Aphis gossypii [4]; [13]
  Degree of destruction/% after 6 days: 40%
Aphis gossypii [4]; [14]
  Degree of destruction/% after 6 days: 60%
Aphis gossypii [4]; [15]
  Degree of destruction/% after 6 days: 80%
Aphis gossypii [4]; [16]
  Degree of destruction/% after 6 days: 40%

## COC1CCCC2(CC(O)=C(c3c(C)cc(C)cc3C)C2=O)C1 (stereo not shown) [Example I-6-a-2]
Aphis gossypii [4]; [13]
  Degree of destruction/% after 6 days: 30%
Aphis gossypii [4]; [14]
  Degree of destruction/% after 6 days: 15%
Aphis gossypii [4]; [15]
  Degree of destruction/% after 6 days: 40%
Aphis gossypii [4]; [16]
  Degree of destruction/% after 6 days: 0%

## O=C1C(c2cc(-c3ccc(Cl)cc3)ccc2Cl)C(=O)N2CCCCN12 [Example I-8-a-1]
Myzus persicae [3]; [13]
  Degree of destruction/% after 6 days: 30%
Myzus persicae [3]; [14]
  Degree of destruction/% after 6 days: 30%
Myzus persicae [3]; [15]
  Degree of destruction/% after 6 days: 45%
Myzus persicae [3]; [16]
  Degree of destruction/% after 6 days: 15%
Aphis gossypii [4]; [13]
  Degree of destruction/% after 6 days: 15%
Aphis gossypii [4]; [14]
  Degree of destruction/% after 6 days: 15%
Aphis gossypii [4]; [15]
  Degree of destruction/% after 6 days: 40%
Aphis gossypii [4]; [16]
  Degree of destruction/% after 6 days: 0%

## O=C1C(c2cc(-c3ccc(Cl)cc3)ccc2Cl)C(=O)N2CCOCCN12 [Example I-8-a-2]
Myzus persicae [3]; [13]
  Degree of destruction/% after 6 days: 15%
Myzus persicae [3]; [14]
  Degree of destruction/% after 6 days: 15%
Myzus persicae [3]; [15]
  Degree of destruction/% after 6 days: 55%
Myzus persicae [3]; [16]
  Degree of destruction/% after 6 days: 0%

## Cc1ccc(-c2ccc(Cl)cc2)c(C)c1C1C(=O)N2CCOCCN2C1=O [Example I-8-a-3]
Aphis gossypii [4]; [11]
  Degree of destruction/% after 6 days: 50%
Aphis gossypii [4]; [17]
  Degree of destruction/% after 6 days: 50%
Aphis gossypii [4]; [18]
  Degree of destruction/% after 6 days: 90%
Aphis gossypii [4]; [12]
  Degree of destruction/% after 6 days: 15%

## Cc1cc(C)c(C2C(=O)N3CCOCCN3C2=O)c(C)c1-c1ccc(Cl)cc1 [Example I-8-a-4]
Aphis gossypii [4]; 90 ppm active ingredient, +AS (1000 ppm)
  Degree of destruction/% after 6 days: 35%
Aphis gossypii [4]; 90 ppm active ingredient, +RME (1000 ppm)
  Degree of destruction/% after 6 days: 30%
Aphis gossypii [4]; 90 ppm active ingredient, +RME +AS (each 1000 ppm)
  Degree of destruction/% after 6 days: 75%
Aphis gossypii [4]; 90 ppm active ingredient, no additive
  Degree of destruction/% after 6 days: 30%

## Cc1ccc(-c2ccc(Cl)cc2)cc1C1=C(O)C(C)(C)C(C)(C)NC1=O [Example I-9-a-1]
Myzus persicae [3]; [13]
  Degree of destruction/% after 6 days: 0%
Myzus persicae [3]; [14]
  Degree of destruction/% after 6 days: 5%
Myzus persicae [3]; [15]
  Degree of destruction/% after 6 days: 50%
Myzus persicae [3]; [16]
  Degree of destruction/% after 6 days: 15%

## Cc1ccc(-c2ccc(Cl)cc2)cc1C1=C(O)C2(C)CCCCC2OC1=O (stereo not shown) [Example I-10-a-2]
Aphis gossypii [2]; [7]
  Degree of destruction/% after 6 days: 50%
Aphis gossypii [2]; [8]
  Degree of destruction/% after 6 days: 0%
Aphis gossypii [2]; [11]
  Degree of destruction/% after 6 days: 80%
Aphis gossypii [2]; [12]
  Degree of destruction/% after 6 days: 10%
Myzus persicae [3]; [11]
  Degree of destruction/% after 6 days: 10%
Myzus persicae [3]; [17]
  Degree of destruction/% after 6 days: 0%
Myzus persicae [3]; [18]
  Degree of destruction/% after 6 days: 65%
Myzus persicae [3]; [12]
  Degree of destruction/% after 6 days: 5%

— patent US8247351B2, “Insecticidal compositions having improved effect” (Bayer Cropscience AG, priority 2005, dated 2012)
